# Test results published in patent US20240384268A1, “Oligonucleotides” (Hudson Institute of Medical Research, priority 2021, published 2024).
# Target: T1, human TLR9 (Homo sapiens, UniProt Q9NR96)
# T1 construct: HA; host or cells: 293XL-hTLR9-HA (HEK293)
# T1 sequence (Q9NR96 26-1032): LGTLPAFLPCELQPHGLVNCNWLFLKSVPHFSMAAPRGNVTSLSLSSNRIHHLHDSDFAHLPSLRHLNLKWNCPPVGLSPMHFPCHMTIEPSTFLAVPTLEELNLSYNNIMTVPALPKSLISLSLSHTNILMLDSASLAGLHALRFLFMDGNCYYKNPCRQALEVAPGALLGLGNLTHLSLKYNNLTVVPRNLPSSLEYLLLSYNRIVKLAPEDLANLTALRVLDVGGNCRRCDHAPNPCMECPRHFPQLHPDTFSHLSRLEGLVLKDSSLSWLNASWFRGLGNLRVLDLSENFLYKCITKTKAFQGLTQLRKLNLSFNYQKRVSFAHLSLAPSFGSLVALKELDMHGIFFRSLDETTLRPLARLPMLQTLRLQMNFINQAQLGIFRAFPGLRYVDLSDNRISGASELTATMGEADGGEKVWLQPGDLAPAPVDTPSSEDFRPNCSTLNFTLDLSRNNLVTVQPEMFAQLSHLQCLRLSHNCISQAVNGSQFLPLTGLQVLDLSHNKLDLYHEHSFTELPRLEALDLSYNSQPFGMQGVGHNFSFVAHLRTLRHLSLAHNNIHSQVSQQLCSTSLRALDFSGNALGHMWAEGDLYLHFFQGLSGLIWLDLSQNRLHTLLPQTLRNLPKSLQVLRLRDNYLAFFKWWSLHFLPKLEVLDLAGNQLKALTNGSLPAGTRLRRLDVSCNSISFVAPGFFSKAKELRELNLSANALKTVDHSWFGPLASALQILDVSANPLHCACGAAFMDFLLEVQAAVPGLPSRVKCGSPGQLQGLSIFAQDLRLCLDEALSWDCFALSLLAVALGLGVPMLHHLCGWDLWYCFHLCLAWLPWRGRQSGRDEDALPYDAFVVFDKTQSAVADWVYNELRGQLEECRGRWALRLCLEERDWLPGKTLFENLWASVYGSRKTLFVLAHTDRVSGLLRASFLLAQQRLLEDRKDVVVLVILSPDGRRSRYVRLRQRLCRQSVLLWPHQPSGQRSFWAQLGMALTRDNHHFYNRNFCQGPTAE
# Assay: HEK-TLR9 NF-κB-luciferase reporter, ODN2006 stimulation
# Assay type: cell-based
# Conditions: relative to ODN2006 only, given as fraction; for TLR9 100 nM (averaged NF-κB-Luciferase level relative to ODN2006 condition): ASO 100 nM; for TLR9 500 nM (averaged NF-κB-Luciferase level relative to ODN2006 condition): ASO 500 nM
Sequence,TLR9 100 nM (averaged NF-κB-Luciferase level relative to ODN2006 condition),TLR9 500 nM (averaged NF-κB-Luciferase level relative to ODN2006 condition)
"GACTATACGCGCAATA (antisense; LNA-modified, pattern not given here) [NC5 LNA PS 3-10-3]",0.784,0.403
"GAGGTCTTGGCTTCGT (antisense; LNA-modified, pattern not given here) [MB21D1-525 LNA V1]",0.897,0.224
"GATGGCCTCCCATCTC (antisense; LNA-modified, pattern not given here) [HPRT LNA-331 V1]",1.033,0.476
"GCACACTTCGTACCCA (antisense; LNA-modified, pattern not given here) [CAMSAP1-4915 LNA V1]",0.683,0.147
"GCACTTCAGTCTGAGC (antisense; LNA-modified, pattern not given here) [MB21D1-719 LNA KL]",0.673,0.144
"GGAGGTCTTGGCTTCG (antisense; LNA-modified, pattern not given here) [MB21D1-526 LNA V1]",0.912,0.674
"GGCACTTTGCCTCCTT (antisense; LNA-modified, pattern not given here) [EGFR-2859 LNA V1]",1.092,0.788
"GGCTCGGCTTGCCTAC (antisense; LNA-modified, pattern not given here) [CAMSAP1-5594 LNA V1]",0.714,0.350
"GGTCATTACAATAGCT (antisense; LNA-modified, pattern not given here) [HPRT LNA-475 KL]",0.438,0.604
"GGTCTTGGCTTCGTGG (antisense; LNA-modified, pattern not given here) [MB21D1-523 LNA V1]",0.658,0.417
"GTCAAGGGCATATCCT (antisense; LNA-modified, pattern not given here) [HPRT LNA-732 KL]",0.844,0.387
"GTCCTTGCACGTGGCT (antisense; LNA-modified, pattern not given here) [EGFR-1015 LNA V1]",1.310,0.722
"GTCTCTGGAGCTTCCT (antisense; LNA-modified, pattern not given here) [CAMSAP1-2456 LNA V1]",0.935,0.272
"GTCTTCATCGGCCCTG (antisense; LNA-modified, pattern not given here) [CAMSAP1-2113 LNA V1]",0.797,0.617
"GTGATCTTGACATGCT (antisense; LNA-modified, pattern not given here) [EGFR-2790 LNA KL]",1.001,0.181
"GTGATGGCCTCCCATC (antisense; LNA-modified, pattern not given here) [HPRT LNA-333 V1]",0.890,0.694
